Results reported in ChEMBL document CHEMBL3352029, “Ring fusion strategy for the synthesis of anthra[2,3-d]oxazole-2-thione-5,10-dione homologues as DNA topoisomerase inhibitors and as antitumor agents” (Eur J Med Chem, 2014).
Activity calls are given as the source filed them. The rule behind the calls is not given here.

How the values were obtained:
HOP-92 = test: Cytotoxicity against human HOP92 cells assessed as cell growth level at 10 uM after 48 hrs by sulforhodamine B assay; type: functional
MDA-MB-435 = test: Cytotoxicity against human MDA-MB-435 cells assessed as cell growth level at 10 uM after 48 hrs by sulforhodamine B assay; type: functional
LOX IMVI = test: Cytotoxicity against human LOXIMVI cells assessed as cell growth level at 10 uM after 48 hrs by sulforhodamine B assay; type: functional
NCI-H226 = test: Cytotoxicity against human NCI-H226 cells assessed as cell growth level at 10 uM after 48 hrs by sulforhodamine B assay; type: functional
HCC 2998 = test: Cytotoxicity against human HCC2998 cells assessed as cell growth level at 10 uM after 48 hrs by sulforhodamine B assay; type: functional
[1] = Cytotoxicity against human NCI-ADR-RES cells assessed as cell growth level at 10 uM after 48 hrs by sulforhodamine B assay; type: functional
U-251 = test: Cytotoxicity against human U251 cells assessed as cell growth level at 10 uM after 48 hrs by sulforhodamine B assay; type: functional
SNB-75 = test: Cytotoxicity against human SNB75 cells assessed as cell growth level at 10 uM after 48 hrs by sulforhodamine B assay; type: functional
RPMI-8226 = test: Cytotoxicity against human RPMI8226 cells assessed as cell growth level at 10 uM after 48 hrs by sulforhodamine B assay; type: functional
HOP-62 = test: Cytotoxicity against human HOP62 cells assessed as cell growth level at 10 uM after 48 hrs by sulforhodamine B assay; type: functional
KM12 = test: Cytotoxicity against human KM12 cells assessed as cell growth level at 10 uM after 48 hrs by sulforhodamine B assay; type: functional
HT-29 = test: Cytotoxicity against human HT-29 cells assessed as cell growth level at 10 uM after 48 hrs by sulforhodamine B assay; type: functional
[2] = Cytotoxicity against human HCT15 cells assessed as cell growth level at 10 uM after 48 hrs by sulforhodamine B assay; type: functional, HCT-15
[3] = target: T1, DNA topoisomerase 1 (Homo sapiens) (UniProt P11387); test: Inhibition of human recombinant DNA topoisomerase 1 assessed as reduction in relaxation of supercoiled pHOT DNA at 25 to 50 uM incubated for 45 mins by ethidium bromide staining based gel electrophoresis
T1 sequence (whole entry): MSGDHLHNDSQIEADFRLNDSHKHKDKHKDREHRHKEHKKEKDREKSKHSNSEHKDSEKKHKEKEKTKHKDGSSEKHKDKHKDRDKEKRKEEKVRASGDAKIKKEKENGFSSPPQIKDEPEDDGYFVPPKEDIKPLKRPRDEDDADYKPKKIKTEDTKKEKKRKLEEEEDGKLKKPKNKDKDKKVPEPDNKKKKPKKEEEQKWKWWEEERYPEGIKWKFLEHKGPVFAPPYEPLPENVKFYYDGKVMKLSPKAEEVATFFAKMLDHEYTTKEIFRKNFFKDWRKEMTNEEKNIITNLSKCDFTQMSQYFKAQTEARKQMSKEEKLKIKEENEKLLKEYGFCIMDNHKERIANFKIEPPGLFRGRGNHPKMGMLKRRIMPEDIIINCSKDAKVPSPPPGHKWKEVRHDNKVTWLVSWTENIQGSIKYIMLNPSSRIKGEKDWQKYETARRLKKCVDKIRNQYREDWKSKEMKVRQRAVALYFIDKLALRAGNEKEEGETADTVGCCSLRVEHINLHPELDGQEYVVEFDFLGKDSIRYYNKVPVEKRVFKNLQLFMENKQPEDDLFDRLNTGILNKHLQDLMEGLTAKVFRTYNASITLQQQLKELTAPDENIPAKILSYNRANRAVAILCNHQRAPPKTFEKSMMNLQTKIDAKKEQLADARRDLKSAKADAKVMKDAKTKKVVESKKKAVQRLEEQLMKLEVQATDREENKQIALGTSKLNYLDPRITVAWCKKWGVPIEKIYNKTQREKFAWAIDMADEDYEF

[4] = target: T1, DNA topoisomerase 1 (Homo sapiens); test: Inhibition of human recombinant DNA topoisomerase 1 assessed as reduction in relaxation of supercoiled pHOT DNA at 6.25 to 25 uM incubated for 45 mins by ethidium bromide staining based gel electrophoresis

Compound | Activity (HOP-92) [%] | Activity (MDA-MB-435) [%] | Activity (LOX IMVI) [%] | Activity (NCI-H226) [%] | Activity (HCC 2998) [%] | Activity [1] [%] | Activity (U-251) [%] | Activity (SNB-75) [%] | Activity (RPMI-8226) [%] | Activity (HOP-62) [%] | Activity (KM12) [%] | Activity (HT-29) [%] | Activity [2] [%] | inhibition [3] | inhibition [4]
CCSc1nc2cc3c(cc2o1)C(=O)c1ccccc1C3=O | 72.67 | 101.49 | 91 | 82.45 | 101.65 | 95.82 | 94 | 96.42 | 91.04 | 75.13 | 101.43 | 89.08 | 96.65 |  | 
CN(C)CCCSc1nc2cc3c(cc2o1)C(=O)c1ccccc1C3=O | 34.36 | 85.47 | 76.64 | 100.17 | 100.1 | 90.68 | 87.74 | 88.28 | 84.91 | 85.62 | 82.13 | 64.03 | 68.98 | Active | Dose-dependent effect
O=C1c2ccccc2C(=O)c2cc3oc(SCc4ccc(F)cc4)nc3cc21 | 74.13 | 91.05 | 94.24 | 83.03 | 108.69 | 91.27 | 96.4 | 88.45 | 96.5 | 89.39 | 104.72 | 91.18 | 94.53 |  | 
